Measurements as given in patent publication US20060167057A1, “Compounds for the treatment of CNS and amyloid associated diseases” (priority 2004, published 2006).

Tests used:
[1] = tested on: Apolipoprotein E-Aβ interaction; experiment: Apolipoprotein E-Aβ interaction assay; format: binding; details: 200 μM test compound, ApoE/Aβ alone = 100%
Protocol: The level of interaction between Apolipoprotein E and Aβ was measured for five inventive compounds to determine whether, under the specific conditions of the present example, the compounds would inhibit the interaction. Nunc-Immuno Maxisorp 96-well microtiter plates were coated with 1 μM HFIP-disaggregated Aβ in 0.1 M NaHCO3 pH 9.6 for 2 hours and 15 minutes at 37°, washed two times in TBS (100 mM Tris-HCl, pH 7.5, 150 mM NaCl), and wells were blocked with 1% fatty-acid free BSA in TBS overnight at 4°.
Test compounds were prepared in either TBS or DMSO at a final concentration of either 2 mM or 10 mM respectively. Recombinant ApoE (Fitzgerald Industries Int.) was prepared in 700 mM NH4HCO3 at a final concentration of 0.44 mg/mL to prevent monomer assembly and stored as aliquots at −20°. 3.41 μg/mL of purified ApoE was pre-incubated in the presence of 200 μM test compounds, all in triplicate, in 1% BSA/TBS in a 96-well transfer plate for one hour and then added to the Aβ-coated wells for an additional two hours with gentle shaking at 37° to allow ApoE/Aβ association. Plates were washed three times in TBS to remove excess ApoE and incubated first with 0.125 μg/mL mouse monoclonal anti-ApoE antibody (BD Bioscience) for 1 hour, washed and then incubated with 0.26 μg/mL horse-radish peroxidase conjugated goat anti-IgG antibody (Pierce) for 1 hour in 1% BSA/TBS-T (0.05% Tween-20). After washing, wells were incubated with Sure Blue™ TMB-1 peroxidase substrate (KPL) for 30 minutes. The reaction was stopped using 1N HCl. Absorbance values at 450 nm were measured using TECAN plate reader and reflect the amount of ApoE bound to Aβ in the wells. Data were expressed as a percentage of ApoE/Aβ complexes by arbitrarily setting ApoE/Aβ alone at 100%. All compounds were tested at least twice.

SH-SY5Y cells = experiment: Hoechst staining assay of Aβ1-42-induced apoptosis; format: cell-based; details: Homo sapiens, 10 μM Aβ1-42, 200 μM compound, 24 hours, read-out: inhibition of Aβ-induced cellular apoptosis at DNA level
Protocol: SH-SY5Y cells were cultured and sub-cultured according to ATCC's recommendations. Cells were grown in a culture medium containing 10% fetal bovine serum (FBS), 1× non-essential amino acids in a 1:1 mixture of Eagle's minimum essential medium and Ham's F12 medium.
For passage, cells were trypsinized with 0.25% (w/vol) Trypsin/Ethylene-diaminetetraacetic (EDTA) for 5 min at 37° C., and then centrifuged for 5 min at 300× g (GS-6R Beckman Centrifuge). The pellet was resuspended in the culture medium and the cell density was adjusted.
Synthetic Aβ1-42 is purchased from American Peptide Company, Sunnyvale, Calif. […] The exact concentration of the solution is calculated by measuring the optical density at 280 nm. […]
Nuclear morphology was observed using an Olympus fluorescent microscope IX50 equipped with an Olympus Camera (20× objectif and a bandpass filter (Ex/Em: 355 nm/465 nm). Live cells and cells considered morphologically apoptotic were counted. Apoptotic nuclei of undifferentiated SH-SY5Y appear condensed and occasionally fragmented (representative pictures of Hoechst staining are in FIGS. 1A-1B for vehicle and 2A-2B for Aβ).
Five random fields were captured for each condition in a blinded fashion. Apoptotic and normal nuclei in each field were quantified by manual examination. […] The total number of cells counted in each condition ranged from 120 to 550. […]

HUVEC = experiment: Cellular toxicity assay on HUVEC (WST-1 viability); format: cell-based, human; details: 24 hours, <75% considered toxic
Protocol: Compound samples in PBS (without Ca^+2, Mg^+2)-glucose 3 mM-HEPES 10 mM—DMSO 1%, as prepared in Example 1, were thawed and left for at least 30 minutes at 20-23° C. before preparation of the following sub-dilutions for the compound toxicity assay: • 100 μL of stock compound solution were added to 900 μL PBSD-1 [diluted 1:10 for a final 1:10 dilution] • 100 μL (1/10 dilution above) were added to 900 μL PBSD-1 [diluted 1:10 for a final 1:100 dilution] Culture of HUVEC
Endothelial cells from human umbilical cord (HUV-EC-C or HUVEC) were purchased form American Type Culture Collection (ATCC, CRL-1730) and cultured according to the manufacturer's protocol. A 1-mL frozen aliquot of sub-cultured cells was thawed in a 37° C. water bath and centrifuged following addition of 5 mL of medium. After re-suspension in 5 mL medium, cells were seeded in a TC80 cm^2 flask pre-coated with 0.1% gelatin. Culture medium was replaced every 3-4 days and cells monitored until confluency was reached.
A sterile stock solution of 0.5 mM of camptothecin (Sigma) was prepared by dissolving a weighed amount of 0.0085 g in 50 mL of double distilled water at 37° C. in a water bath. The solution was vortexed, then filtered through a 0.22-μm filter unit and kept at 4° C. for the duration of the toxicity assays.
From the stock solution, concentrations of 60, 75, 80, 100, 150, 200 and 250 nM of camptothecin were prepared in culture diluent containing 1% DMSO.
HUVEC were cultured for 4 days in gelatin-coated 96-well plates, following seeding with 40 μL/well of a cellular suspension of 1×10^5 cells/mL. Culture media was replaced every 3-4 days of culture until confluency was reached.
On the day of the toxicity assay, the conditioned culture media was removed from the wells and 90 μL of culture medium containing 1% DMSO was distributed in the plate. A volume of 10 μL of the stock solution, 1:10 and 1:100 dilutions of the compounds in PBS-glucose-HEPES-DMSO 1% were added to the appropriate wells (100-μL total volume/well). A volume of 100 μL of camptothecin dilutions and culture medium containing 1% DMSO was also distributed into the plate. Cells were incubated at 37° C. of 24 hours and then 10 μL of the tetrazolium salt WST-1 solution were added to cells and incubated for an extra 90 minutes at 37° C. The absorbance that was associated to the cellular viability was measured at 450nm on the SpectraFluor Tecan reader, and the raw data processed.
The intrinsic cellular toxicity of the compounds was determined for each concentration of every compound on HUVEC. The viability percentage was assessed (OD sample/OD control) ×100% and any value <75% viability was considered toxic. The following table, Table 5, lists the few compounds that presented at least one toxic concentration.

[2] = molecular target: T1, L1 transport system (large neutral amino acid carrier, L1-system carrier) (Rattus norvegicus, UniProt Q63016); experiment: Competitive binding assay to the brain L1 transport system (L-[U-14C]phenylalanine on rat primary cerebrovascular endothelial cells)
T1 construct: functionality of their endogenous transporters such as the L1-system carrier; endogenous in cells; host or cells: rat primary cerebrovascular (brain microcapillary) endothelial cells, RBEC
Method in brief: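 Cells were primary cerebral microvascular endothelial cells from cortices of 24-day-old rats, isolated by collagenase/DNAse digestion, dextran separation and mesh filtration.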

T1 sequence (Q63016 whole entry): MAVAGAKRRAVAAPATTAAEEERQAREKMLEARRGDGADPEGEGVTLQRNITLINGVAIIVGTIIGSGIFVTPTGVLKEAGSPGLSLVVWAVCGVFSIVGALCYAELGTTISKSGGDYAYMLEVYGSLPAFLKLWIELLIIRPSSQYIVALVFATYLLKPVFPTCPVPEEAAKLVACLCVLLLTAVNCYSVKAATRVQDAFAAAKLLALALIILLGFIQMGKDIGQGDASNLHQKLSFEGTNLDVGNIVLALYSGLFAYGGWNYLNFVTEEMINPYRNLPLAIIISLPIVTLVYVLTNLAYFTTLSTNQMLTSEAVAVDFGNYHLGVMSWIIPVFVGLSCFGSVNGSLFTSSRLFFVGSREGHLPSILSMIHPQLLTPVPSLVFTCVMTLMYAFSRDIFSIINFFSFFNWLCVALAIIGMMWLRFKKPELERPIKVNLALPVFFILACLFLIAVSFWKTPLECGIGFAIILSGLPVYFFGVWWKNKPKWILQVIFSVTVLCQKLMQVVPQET
T1 sequence (Q794F9 whole entry partner): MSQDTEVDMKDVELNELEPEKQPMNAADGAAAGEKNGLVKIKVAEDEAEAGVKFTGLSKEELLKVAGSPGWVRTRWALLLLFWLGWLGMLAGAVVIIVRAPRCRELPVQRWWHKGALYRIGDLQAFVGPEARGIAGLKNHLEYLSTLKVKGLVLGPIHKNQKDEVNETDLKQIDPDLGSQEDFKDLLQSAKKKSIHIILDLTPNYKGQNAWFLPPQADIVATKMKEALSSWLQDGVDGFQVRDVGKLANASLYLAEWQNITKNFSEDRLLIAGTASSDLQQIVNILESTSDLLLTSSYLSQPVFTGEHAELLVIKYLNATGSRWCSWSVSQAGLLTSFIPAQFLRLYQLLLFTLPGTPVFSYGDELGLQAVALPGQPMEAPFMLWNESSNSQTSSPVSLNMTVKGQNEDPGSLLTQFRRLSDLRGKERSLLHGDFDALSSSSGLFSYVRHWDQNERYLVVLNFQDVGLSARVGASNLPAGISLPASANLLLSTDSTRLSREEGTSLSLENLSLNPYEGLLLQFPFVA

SMILES	Aβ-ApoE % Complex ([1]; first value of the cell)	Aβ-ApoE % Complex ([1]; second value of the cell)	further results
N[C@@H](Cc1cccc(CSc2nnc(-c3ccccc3)[nH]2)c1)C(=O)O [drawing 531]	88%	94%	
N[C@@H](Cc1cccc(CSc2nnc(-c3ccccc3)[nH]2)c1)C(=O)O [drawing 537]			inhibition at 200 µM (SH-SY5Y cells): 22.5%
COc1ccc(-n2nnnc2SCc2cccc(C[C@H](N)C(=O)O)c2)cc1 [drawing 529]	98%	97%	
NC(Cc1cccc(CSc2nnnn2-c2ccccc2)c1)C(=O)O (centres unmarked) [drawing 530]	107%	97%	
NC(Cc1cccc(CSc2nc3ccccc3o2)n1)C(=O)O (centres unmarked) [Compound 30]			Viability (%) (HUVEC; 10^−4 M): 110%; Viability (%) (HUVEC; 10^−5 M): 112%; Viability (%) (HUVEC; 10^−6 M): 8%; Comparison with the Binding of Phenylalanine ([2]; 10^−4 M): 1 (0 < X < 10 Rank 1); Comparison with the Binding of Phenylalanine ([2]; 10^−5 M): 2 (10 < X < 20 Rank 2); Comparison with the Binding of Phenylalanine ([2]; 10^−6 M): 3 (X > 20 Rank 3)
N[C@@H](Cc1cccc(CSc2nc3ccccc3[nH]2)n1)C(=O)O [drawing 532]	94%	112%	
N[C@@H](Cc1cccc(CSc2nnc(-c3ccncc3)o2)c1)C(=O)O [drawing 533]	101%	94%	
